Where “and” joins values, the source holds several entries; their conditions need not be identical. Equal values may be shown once. Toxic doses and inconclusive results are not listed. How the source made its calls: active means survival T/C of 150% or more; inactive means T/C below 125% in these data.
System: P388 leukemia ip, CD2F1 mice, survival T/C
Experiment: NCI In Vivo Anticancer Drug Screen. Data for tumor model P388 Leukemia (intraperitoneal) in CD2F1 (CDF1) mice
Details: endpoint: median survival time, higher = longer survival
Summary of the method: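 Mice carrying the transplanted tumor received test compound or vehicle. Survival was recorded in each group, and the value is the treated-group measurement divided by that of the vehicle-treated control group.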

[1] = dose: 50.0 mg/kg/injection, schedule: Q01DX005 (ip), vehicle: saline with Tween-80
[2] = dose: 100.0 mg/kg/injection, schedule: Q01DX005 (ip), vehicle: saline with Tween-80
[3] = dose: 200.0 mg/kg/injection, schedule: Q01DX005 (ip), vehicle: saline with Tween-80
[4] = dose: 60.0 mg/kg/injection, schedule: Q01DX005 (ip), vehicle: saline with Tween-80
[5] = dose: 120.0 mg/kg/injection, schedule: Q01DX005 (ip), vehicle: saline with Tween-80
[6] = dose: 240.0 mg/kg/injection, schedule: Q01DX005 (ip), vehicle: saline with Tween-80
[7] = dose: 50.0 mg/kg/injection, schedule: Q01DX009 (ip), vehicle: saline
[8] = dose: 100.0 mg/kg/injection, schedule: Q01DX009 (ip), vehicle: saline with Tween-80
[9] = dose: 25.0 mg/kg/injection, schedule: Q01DX009 (ip), vehicle: Klucel (hydroxypropylcellulose) (HPC)
[10] = dose: 50.0 mg/kg/injection, schedule: Q01DX009 (ip), vehicle: Klucel (hydroxypropylcellulose) (HPC)
[11] = dose: 100.0 mg/kg/injection, schedule: Q01DX009 (ip), vehicle: Klucel (hydroxypropylcellulose) (HPC)
[12] = dose: 200.0 mg/kg/injection, schedule: Q01DX009 (ip), vehicle: Klucel (hydroxypropylcellulose) (HPC)
[13] = dose: 25.0 mg/kg/injection, schedule: Q01DX009 (ip), vehicle: saline with Tween-80

Measured: T/C

CC(O)C(=O)NCO (stereo not drawn)
inactive: dose: 50.0 mg/kg/injection, schedule: Q01DX005 (ip), vehicle: saline 104 % of control | dose: 100.0 mg/kg/injection, schedule: Q01DX005 (ip), vehicle: saline 100 % of control | dose: 200.0 mg/kg/injection, schedule: Q01DX005 (ip), vehicle: saline 100 % of control

COCc1cccc2ccnc(C)c12
inactive: dose: 100.0 mg/kg/injection, schedule: Q01DX001 (ip), vehicle: saline with Tween-80 104 % of control | dose: 200.0 mg/kg/injection, schedule: Q01DX001 (ip), vehicle: saline with Tween-80 108 % of control | dose: 400.0 mg/kg/injection, schedule: Q01DX001 (ip), vehicle: saline with Tween-80 107 % of control

CC(N)C(=O)OCN1C(=O)C2C3C=CC(C2C1=O)C1C(=O)N(COC(=O)C(C)N)C(=O)C31 (stereo not drawn)
inactive: dose: 25.0 mg/kg/injection, schedule: Q01DX009 (ip), vehicle: water 100 % of control | dose: 50.0 mg/kg/injection, schedule: Q01DX009 (ip), vehicle: water 100 % of control | dose: 100.0 mg/kg/injection, schedule: Q01DX009 (ip), vehicle: water 112 % of control | dose: 200.0 mg/kg/injection, schedule: Q01DX009 (ip), vehicle: water 121 % of control

N=c1nc(N)nc2n1N=C(c1ccc(Cl)cc1)CS2
inactive: dose: 25.0 mg/kg/injection, schedule: Q01DX005 (ip), vehicle: saline with Tween-80 102 % of control | [1] 92 % of control | [2] 90 % of control

O=c1[nH]cnc2nc(S(=O)(=O)F)[nH]c12
inactive: [1] 103 % of control | [2] 103 % of control | [3] 103 % of control

O=C1c2cc([N+](=O)[O-])cc3cc([N+](=O)[O-])cc(c23)C(=O)N1CCNCCN1C(=O)c2cc([N+](=O)[O-])cc3cc([N+](=O)[O-])cc(c23)C1=O
inactive: [1] 100 % of control and 123 % of control | [2] 107 % of control | [3] 105 % of control and 88 % of control

CCOC(=O)CC(SCP(=O)(OCC)OCC)C(=O)OCC (stereo not drawn)
inactive: [4] 101 % of control | [5] 95 % of control | [6] 93 % of control

C[N+](C)(C)CCC(=O)c1cccc([N+](=O)[O-])c1
inactive: dose: 12.5 mg/kg/injection, schedule: Q01DX009 (ip), vehicle: saline 101 % of control | dose: 25.0 mg/kg/injection, schedule: Q01DX009 (ip), vehicle: saline 97 % of control | [7] 108 % of control and 97 % of control

NSc1ccc([N+](=O)[O-])cc1
inactive: dose: 25.0 mg/kg/injection, schedule: Q01DX001 (ip), vehicle: other 109 % of control | dose: 50.0 mg/kg/injection, schedule: Q01DX001 (ip), vehicle: other 100 % of control

Cc1ccc(S(=O)(=O)O/N=C(/C#N)c2ccccc2)cc1
inactive: [7] 101 % of control | [8] 102 % of control | dose: 100.0 mg/kg/injection, schedule: Q01DX009 (ip), vehicle: saline 99 % of control | dose: 200.0 mg/kg/injection, schedule: Q01DX009 (ip), vehicle: saline with Tween-80 101 % of control | dose: 200.0 mg/kg/injection, schedule: Q01DX009 (ip), vehicle: saline 105 % of control | dose: 400.0 mg/kg/injection, schedule: Q01DX009 (ip), vehicle: saline with Tween-80 97 % of control

COc1cc2c3c(cccc3c1)C(=O)N(CCN(C)C)C2=O
inactive: dose: 9.5 mg/kg/injection, schedule: Q01DX009 (ip), vehicle: saline with Tween-80 110 % of control

C[n+]1cc2ccccc2cc1CC(=S)[S-]
inactive: [9] 98 % of control | [10] 98 % of control | [11] 99 % of control | [12] 91 % of control

COC1OC(CO)C(N(C)C(C)=O)C1O (stereo not drawn)
inactive: dose: 60.0 mg/kg/injection, schedule: Q01DX005 (ip), vehicle: saline 120 % of control | dose: 120.0 mg/kg/injection, schedule: Q01DX005 (ip), vehicle: saline 115 % of control | dose: 240.0 mg/kg/injection, schedule: Q01DX005 (ip), vehicle: saline 106 % of control

ClCCN(CCCl)c1ccc(N=Nc2ccc(-c3ccccc3)cc2)cc1
inactive: dose: 3.0 mg/kg/injection, schedule: Q01DX001 (ip), vehicle: Klucel (hydroxypropylcellulose) (HPC) 95 % of control | dose: 6.0 mg/kg/injection, schedule: Q01DX001 (ip), vehicle: Klucel (hydroxypropylcellulose) (HPC) 103 % of control | dose: 12.0 mg/kg/injection, schedule: Q01DX001 (ip), vehicle: Klucel (hydroxypropylcellulose) (HPC) 93 % of control

O=C(CS(=O)(=O)c1ccccc1)c1ccccc1
inactive: [11] 101 % of control | [12] 101 % of control | dose: 400.0 mg/kg/injection, schedule: Q01DX009 (ip), vehicle: Klucel (hydroxypropylcellulose) (HPC) 105 % of control

CC1=C(C(=O)Nc2ccc(C)cc2C)C(c2cccc([N+](=O)[O-])c2)C(C(=O)Nc2ccc(C)cc2C)=C(C)N1
inactive: dose: 7.5 mg/kg/injection, schedule: Q01DX005 (ip), vehicle: Klucel (hydroxypropylcellulose) (HPC) 100 % of control | dose: 15.0 mg/kg/injection, schedule: Q01DX005 (ip), vehicle: Klucel (hydroxypropylcellulose) (HPC) 94 % of control | dose: 30.0 mg/kg/injection, schedule: Q01DX005 (ip), vehicle: Klucel (hydroxypropylcellulose) (HPC) 98 % of control

Cc1ccc2c(c1)C1(SC(C)C(=O)N1c1ccc(I)cc1)C(=O)N2 (stereo not drawn)
inactive: [4] 103 % of control | [5] 94 % of control | [6] 91 % of control

CC1(C)N=C(NN=C2CCCCC2)SP1(=O)NCC(=O)O (stereo not drawn)
inactive: dose: 60.0 mg/kg/injection, schedule: Q01DX005 (ip), vehicle: Klucel (hydroxypropylcellulose) (HPC) 101 % of control | dose: 120.0 mg/kg/injection, schedule: Q01DX005 (ip), vehicle: Klucel (hydroxypropylcellulose) (HPC) 100 % of control | dose: 240.0 mg/kg/injection, schedule: Q01DX005 (ip), vehicle: Klucel (hydroxypropylcellulose) (HPC) 101 % of control

COc1ccc2nccc(/C=C/c3ccnc4ccc(OC)cc34)c2c1
inactive: [1] 103 % of control | [2] 103 % of control | [3] 100 % of control

CN(C)Cc1cnccc1I
inactive: dose: 50.0 mg/kg/injection, schedule: Q01DX005 (ip), vehicle: suspension in saline 101 % of control | dose: 100.0 mg/kg/injection, schedule: Q01DX005 (ip), vehicle: suspension in saline 104 % of control | dose: 200.0 mg/kg/injection, schedule: Q01DX005 (ip), vehicle: suspension in saline 108 % of control

CN(C)CCCN1c2ccccc2Sc2ccccc21
inactive: dose: 18.75 mg/kg/injection, schedule: Q01DX009 (ip), vehicle: saline with Tween-80 111 % of control | dose: 18.75 mg/kg/injection, schedule: Q01DX009 (ip), vehicle: saline 112 % of control | dose: 37.5 mg/kg/injection, schedule: Q01DX009 (ip), vehicle: saline with Tween-80 123 % of control | dose: 37.5 mg/kg/injection, schedule: Q01DX009 (ip), vehicle: saline 109 % of control

Cc1cc2nc3[nH]c4ccccc4c3nc2cc1C
inactive: dose: 25.0 mg/kg/injection, schedule: Q01DX009 (ip), vehicle: suspension in saline 94 % of control | dose: 50.0 mg/kg/injection, schedule: Q01DX009 (ip), vehicle: suspension in saline 92 % of control | dose: 100.0 mg/kg/injection, schedule: Q01DX009 (ip), vehicle: suspension in saline 94 % of control | dose: 200.0 mg/kg/injection, schedule: Q01DX009 (ip), vehicle: suspension in saline 92 % of control

COc1ccc2c(c1)-c1c3c(cc4ccnc(c14)C2=O)OCO3
inactive: dose: 2.5 mg/kg/injection, schedule: Q01DX009 (ip), vehicle: saline with Tween-80 107 % of control | dose: 5.0 mg/kg/injection, schedule: Q01DX009 (ip), vehicle: saline with Tween-80 114 % of control | dose: 10.0 mg/kg/injection, schedule: Q01DX009 (ip), vehicle: saline with Tween-80 122 % of control

Cc1ccc(NC(=O)NC(=O)CCl)cc1
inactive: dose: 6.25 mg/kg/injection, schedule: Q01DX009 (ip), vehicle: Klucel (hydroxypropylcellulose) (HPC) 105 % of control | dose: 12.5 mg/kg/injection, schedule: Q01DX009 (ip), vehicle: Klucel (hydroxypropylcellulose) (HPC) 99 % of control | [9] 101 % of control and 105 % of control | [13] 92 % of control | [10] 104 % of control and 108 % of control and 113 % of control | [11] 123 % of control | [8] 106 % of control

O=C(O)COc1ccc(-c2ccc(Br)cc2)cc1
inactive: dose: 12.5 mg/kg/injection, schedule: Q01DX009 (ip), vehicle: saline with Tween-80 91 % of control | [13] 97 % of control | dose: 50.0 mg/kg/injection, schedule: Q01DX009 (ip), vehicle: saline with Tween-80 103 % of control

— PubChem BioAssay AID330 (DTP/NCI, 2004)
